What all share (type): cell-based
The subject of experiment [1] is OE33 cells. Nature of the experiment: Inhibitory activity on cancer cell growth (CCK-8, 72 h), OE33 cells. The note with it: human esophageal cancer cells OE33, 72 h incubation. On the procedure:
(§1) Human esophageal cancer cells OE33, human breast adenocarcinoma cells SK-BR-3 and human gastric cancer cells NCI-N87 were cultured in RPMI1640 (Cellmax) supplemented with 10% fetal bovine serum (Cellmax) respectively. Cells in the exponential growth phase were diluted to a concentration of 1×10^5cells/mL by culture medium and added to 96-well cell culture plates at 100µL per well, then incubated overnight in a 37°C incubator with 5% CO2. On the following day, the test compounds and control compounds were diluted to concentrations of 10000 nM, 2000 nM, 400 nM, 80 nM, 16 nM, 3.2 nM, 0.64 nM, and 0.13 nM by culture medium and added to the 96-well cell culture plates at 2µL per well, with three replicate wells for each concentration. Negative control and blank control groups without the addition of compounds were supplemented with 2µL of the dilution liquid per well. After the addition of the compounds, the plates were returned to the 37°C incubator with 5% CO2 to continue incubation for 72 h. After incubation, the cell culture plates were removed, and the culture medium was aspirated using a pipette. Then, 100µL of culture medium containing 10% CCK-8 was added to each well, and the plates were incubated at 37°C for 3 h. After incubation, the plates were removed, kept in the dark, and placed in ELISA plate. Absorbance was measured at 630nm as the reference wavelength and 450nm as the test wavelength. The IC50 values (Tables 1-3) were calculated using the four-parameter logistic regression method in GraphPad, based on the absorbance values. SN38 (7-ethyl-10-hydroxycamptothecin) and 10CPT (10-hydroxycamptothecin) were used as control compounds. For the IC50 values, wherein "++++" indicates an IC50 < 50 nM; "+++" indicates an IC50 between 50 nM and 100 nM; "++" indicates an IC50 between 100 nM and 500 nM; and "+" indicates an IC50 > 500 nM. Table 1: Inhibitory activity of compounds to inhibit the growth of OE33 cells

Experiment [2] deals with SK-BR-3 cells. Nature of the experiment: Inhibitory activity on cancer cell growth (CCK-8, 72 h), SK-BR-3 cells. The note with it: human breast adenocarcinoma cells SK-BR-3, 72 h incubation. On the procedure:
as §1

In experiment [3] the test system is NCI-N87 cells. As to the kind of experiment: Inhibitory activity on cancer cell growth (CCK-8, 72 h), NCI-N87 cells. The note with it: Homo sapiens, NCI-N87, 72 h, human gastric cancer cells NCI-N87, 72 h incubation. On the procedure: as §1
The mark [4] stands for this setting: Homo sapiens, OE33, 72 h, read-out: IC50.
Setting [5] is: Homo sapiens, SK-BR-3, 72 h, read-out: IC50.
[6] abbreviates: Homo sapiens, OE33, 72 h, numeric value or bound, read-out: IC50.
The mark [7] stands for this setting: Homo sapiens, SK-BR-3, 72 h, bound stated, read-out: IC50.

Read-outs that look alike come from different tables or passages of the source. A value given as a limit tells only on which side of the number the result lay.

Consider `CC[C@@]1(O)C(=O)OCc2c1cc1n(c2=O)Cc2cc3c(CN4CCN(C(=O)OC)CC4)c(O)ccc3nc2-1` [Compound 9, 9-(1-(4-methoxycarbonylpiperazine))methyl-10-hydroxycamptothecin], for which the IC50 is 100 to 500 nM in experiment [1] (setting [4]), 50 to 100 nM in experiment [2] (setting [5]) and less than 50 nM in experiment [3] (read-out: IC50).
Regarding `CC[C@@]1(O)C(=O)OCc2c1cc1n(c2=O)Cc2cc3c(CN(C)C(C)C)c(O)ccc3nc2-1` [Compound 10, 9-(N-methyl-N-isopropylamino)methyl-10-hydroxycamptothecin], the IC50 in experiment [1] (setting [6]) is less than 100 nM; in experiment [1] (setting [4]), 50 to 100 nM; in experiment [2] (setting [7]) it was less than 100 nM; in experiment [2] (setting [5]) it was 50 to 100 nM; in experiment [3] (bound stated, read-out: IC50), less than 100 nM; in experiment [3] (read-out: IC50) it was less than 50 nM.
For the molecule `CC[C@@]1(O)C(=O)OCc2c1cc1n(c2=O)Cc2cc3cc(O)ccc3nc2-1` [Compound 10CPT, 10-hydroxycamptothecin, reference compound], the half-inhibitory concentration (IC50) is less than 50 nM in experiment [1] (Homo sapiens, OE33, 72 h) and less than 50 nM in experiment [2] (Homo sapiens, SK-BR-3, 72 h).
`CC[C@@]1(O)C(=O)OCc2c1cc1n(c2=O)Cc2cc3c(CN(C)CCCCN)c(O)ccc3nc2-1` [Compound 11, 9-(N-4-aminobutyl-N-methylamino)methyl-10-hydroxycamptothecin]: the IC50 in experiment [1] (Homo sapiens, OE33, 72 h) lay in the range of 100 to 500 nM; in experiment [2] (Homo sapiens, SK-BR-3, 72 h) it was 100 to 500 nM.
For the molecule `CC[C@@]1(O)C(=O)OCc2c1cc1n(c2=O)Cc2cc3c(CN(C)CCO)c(O)ccc3nc2-1` [Compound 12, 9-(N-methylhydroxyethylamino)methyl-10-hydroxycamptothecin], the concentration for half-maximal inhibition (IC50) lay in the range of 100 to 500 nM in experiment [1] (Homo sapiens, OE33, 72 h) and 100 to 500 nM in experiment [2] (Homo sapiens, SK-BR-3, 72 h).
`CC[C@@]1(O)C(=O)OCc2c1cc1n(c2=O)Cc2cc3c(CN(C)C4CC4)c(O)ccc3nc2-1` [Compound 17, 9-(N-methyl-N-cyclopropylamine)methyl-10-hydroxycamptothecin]: the IC50 in experiment [1] (setting [6]) is less than 100 nM; in experiment [1] (setting [4]), 50 to 100 nM; in experiment [2] (setting [7]), less than 100 nM; in experiment [2] (setting [5]) it was 50 to 100 nM; in experiment [3] (bound stated, read-out: IC50), less than 100 nM; in experiment [3] (read-out: IC50), less than 50 nM.
Regarding `CC[C@@]1(O)C(=O)OCc2c1cc1n(c2=O)Cc2cc3c(CNN4CCOCC4)c(O)ccc3nc2-1` [Compound 18, 9-(morpholin-4-amine)methyl-10-hydroxycamptothecin], the IC50 in experiment [1] (Homo sapiens, OE33, 72 h) lay within 100 to 500 nM; in experiment [2] (Homo sapiens, SK-BR-3, 72 h) it was 50 to 100 nM.
With `CCN(C)Cc1c(O)ccc2nc3c(cc12)Cn1c-3cc2c(c1=O)COC(=O)[C@]2(O)CC` [Compound 19, 9-(N-methylethylamine)methyl-10-hydroxycamptothecin], the IC50 was 50 to 100 nM in experiment [1] (Homo sapiens, OE33, 72 h); less than 100 nM in experiment [1] (Homo sapiens, OE33, 72 h, numeric value or bound); 50 to 100 nM in experiment [2] (Homo sapiens, SK-BR-3, 72 h); less than 100 nM in experiment [2] (Homo sapiens, SK-BR-3, 72 h, bound stated); less than 50 nM in experiment [3]; less than 100 nM in experiment [3] (bound stated).
As for `CC[C@@]1(O)C(=O)OCc2c1cc1n(c2=O)Cc2cc3c(CNC(C)C)c(O)ccc3nc2-1` [Compound 21, 9-(isopropylamine)methyl-10-hydroxycamptothecin], the 50% inhibitory concentration (IC50) in experiment [1] (setting [4]) and in experiment [2] (setting [5]) was 100 to 500 nM in each case.
Take `CCc1c2c(nc3ccc(O)cc13)-c1cc3c(c(=O)n1C2)COC(=O)[C@]3(O)CC` [SN38, 7-ethyl-10-hydroxycamptothecin, reference compound]: the IC50 in experiment [1] (read-out: IC50) and in experiment [2] (read-out: IC50) was less than 50 nM in each case.

Usually IC50 stands for the midpoint of a concentration-inhibition curve.
